# What was measured:
# [1] = target: human CYP11B1 (Homo sapiens (Human), UniProt P15538); test: Cellular assay for CYP11B1 inhibition (V79MZh11B1 hamster fibroblasts, substrate 11-deoxycorticosterone); settings: for sf: selectivity factor: IC50 (CYP11B2)/IC50 (CYP11B1): ratio IC50 (CYP11B2)/IC50 (CYP11B1); for IC50: read-out: IC50 value CYP11B1, Hamster fibroblasts expressing human CYP11B1, substrate 11-deoxycorticosterone, 100 nM, mean of at least three experiments
# [2] = target: human CYP11B2 (Homo sapiens (Human), UniProt P19099); test: Cellular assay for CYP11B2 inhibition (V79MZh11B2 hamster fibroblasts, substrate 11-deoxycorticosterone); settings: for IC50: read-out: IC50 value CYP11B2, Hamster fibroblasts expressing human CYP11B2, 100 nM, mean of at least three experiments, n.i. = no inhibition at an inhibitor concentration of 500 nM
# [3] = target: human CYP17 (Homo sapiens (Human), UniProt P05093); test: CYP17 inhibition assay (membrane fraction of E. coli expressing human CYP17, substrate progesterone); assay type: biochemical; settings: 25 μM, inhibitor concentration 2.0 μM, read-out: inhibition (%) CYP 17
# Procedure: Recombinant E. coli pJL17/OR coexpressing human CYP17 and rat NADPH-P450-reductase were grown and stored as described by Ehmer et al. (J. Steroid Biochem. Mol. Biol., 2000, 75, 57-63)
# For isolation of membrane fractions, 5 ml of bacterial suspension with an OD578 of 50 were washed using phosphate buffer (0.05 M, pH 7.4, 1 mM MgCl2, 0.1 mM EDTA and 0.1 mM dithiothreitol). Bacteria were harvested by centrifugation (2000×g) and the pellet was resuspended in 10 ml ice-cold TES buffer (0.1 M tris-acetate, pH 7.8, 0.5 mM EDTA, 0.5 M sucrose). Lysozyme was added with 10 ml of ice-cold water resulting in a concentration of 0.2 mg/ml followed by incubation for 30 min on ice with continuous shaking. Spheroplasts were harvested by centrifugation (12000×g, 10 min), and resuspended in 4 ml of ice-cold phosphate buffer (the same as described above plus 0.5 mM phenylmethylsulfonylfluoride (PMSF)).
# After that spheroplasts were sonicated on ice (pulse 20 s on, 30 s off, five times), using a sonicator Sonopuls HD60 (Bandelin, Berlin, Germany) at maximum power. Unbroken cells and debris were pelleted at 3000×g for 7 min, and the supernatant was centrifuged at 50000×g for 20 min at 4° C. The membrane pellet was resuspended in 2 ml of phosphate buffer (the same as described above) with 20% glycerol using an ultra-turrax T25 (IKA-Labortechnik, Staufen, Germany). Protein concentration was determined by the method of Lowry.
# The assay was performed as follows: a solution of 6.25 nmol progesterone (in 5 μl methanol) in 140 μl phosphate buffer (0.05 M, pH 7.4, 1 mM MgCl2, 0.1 mM EDTA and 0.1 mM dithiothreitol), 50 μl NADPH generating system (in phosphate buffer with 10 mM NADP, 100 mM glucose-6-phosphate and 2.5 units of glucose-6-phosphate-dehydrogenase) and inhibitor (in 5 μl DMSO) was pre-incubated at 37° C. for 5 min. Control cups were supplemented with 5 μl DMSO without inhibitor. The reaction was started by adding 50 μl of a 1:5 diluted membrane suspension in phosphate buffer (0.8-1.0 mg protein per ml). The maximum DMSO concentration in each sample was 2%. After mixing, incubation was performed for 30 min at 37° C. Subsequently the reaction was stopped with 50 μl 1 N HCl.
# Extraction of the steroids was performed by addition of 1.0 ml ethyl acetate and vigorous shaking for 1 min. After a centrifugation step (5 min, 2500×g) the organic phase (0.9 ml) was transferred into a fresh cup containing 0.25 ml of incubation buffer and 50 μl 1 N HCl and mixed again. After centrifugation, 0.8 ml ethyl acetate solution was evaporated to dryness in a fresh cup. After that the steroids were redissolved in solvent for HPLC analysis (Hutschenreuter et. al. J. Enz. Inhib. Med. Chem. 2004, 19, 17-32).
# The above experiment was conducted at least three times and a mean value for the CYP17 inhibition calculated.
# [4] = target: Human placental CYP19 (Homo sapiens (Human), UniProt P11511); test: CYP19 (aromatase) assay, human placental microsomes, 3H2O release; assay type: biochemical; settings: substrate androstenedione, 500 nM, inhibitor concentration 500 nM, read-out: inhibition (%) CYP 19
# Procedure: The enzyme was obtained from the microsomal fraction of freshly delivered human term placental tissue according to the procedure of Thompson and Siiteri (Thompson, E. A.; Siiteri, P. K. J. Biol. Chem. 1974, 249, 5364).
# The isolated microsomes were suspended in a minimum volume of phosphate buffer (0.05 M, pH 7.4, 20% glycerol). Additionally, DTT (dithiothreitol, 10 mM) and EDTA (1 mM) were added to protect the enzyme from degradation. The enzyme preparation was stored at −70° C.
# The assay was performed monitoring enzyme activity by measuring the ^3H2O formed from [1β-^3H]androstenedione during aromatization (Hartmann et al. J. Med. Chem. 1986, 29, 1362-1369). […] The test compounds were dissolved in DMSO and diluted with buffer. The final DMSO concentration in the control and inhibitor incubation was 2%. Each tube was pre-incubated for 5 min at 30° C. in a water bath. Microsomal protein was added to start the reaction (0.1 mg). The total volume for each incubation was 0.25 ml. The reaction was terminated by the addition of 200 μl of a cold 1 mM HgCl2 solution. After addition of 200 μl of an aqueous dextran-coated charcoal (DCC) suspension (2%), the vials were shaken for 20 min and centrifuged at 1500×g for 5 min to separate the charcoal-absorbed steroids. The supernatant was assayed for ^3H2O by counting in a scintillation mixture using a β-counter. The calculation of the IC50 values was performed by plotting the percent inhibition vs. the concentration of inhibitor on a semi-log plot.
# The above experiment was conducted at least three times and a mean value for the CYP19 inhibition calculated.
# Human placental CYP19, sequence (P11511 whole entry): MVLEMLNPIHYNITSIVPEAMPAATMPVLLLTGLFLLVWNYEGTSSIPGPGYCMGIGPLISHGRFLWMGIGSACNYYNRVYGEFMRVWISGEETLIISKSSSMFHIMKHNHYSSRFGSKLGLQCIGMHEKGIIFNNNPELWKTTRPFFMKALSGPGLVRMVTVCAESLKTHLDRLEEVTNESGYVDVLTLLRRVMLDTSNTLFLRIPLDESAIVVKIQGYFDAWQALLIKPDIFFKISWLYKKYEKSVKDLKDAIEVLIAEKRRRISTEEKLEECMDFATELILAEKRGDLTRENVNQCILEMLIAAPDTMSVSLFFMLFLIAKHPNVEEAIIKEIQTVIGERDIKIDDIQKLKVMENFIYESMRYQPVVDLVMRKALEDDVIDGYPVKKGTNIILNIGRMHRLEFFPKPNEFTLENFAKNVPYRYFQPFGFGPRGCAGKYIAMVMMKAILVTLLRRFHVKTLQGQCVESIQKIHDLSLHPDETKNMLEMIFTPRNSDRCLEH
# human CYP17, sequence (P05093 whole entry): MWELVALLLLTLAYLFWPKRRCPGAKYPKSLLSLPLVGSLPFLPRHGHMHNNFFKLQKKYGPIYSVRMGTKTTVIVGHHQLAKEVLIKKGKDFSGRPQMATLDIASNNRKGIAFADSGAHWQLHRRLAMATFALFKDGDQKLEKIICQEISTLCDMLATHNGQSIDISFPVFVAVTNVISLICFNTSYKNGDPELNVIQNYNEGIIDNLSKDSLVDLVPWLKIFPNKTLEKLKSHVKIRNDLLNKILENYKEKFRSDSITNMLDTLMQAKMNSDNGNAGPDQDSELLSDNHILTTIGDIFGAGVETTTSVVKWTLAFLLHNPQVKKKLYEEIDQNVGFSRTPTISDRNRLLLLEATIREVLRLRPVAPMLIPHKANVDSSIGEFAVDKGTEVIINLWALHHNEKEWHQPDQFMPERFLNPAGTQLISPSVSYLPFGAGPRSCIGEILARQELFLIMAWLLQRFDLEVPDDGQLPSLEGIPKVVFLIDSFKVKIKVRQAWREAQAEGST
# human CYP11B1, sequence (P15538 25-503): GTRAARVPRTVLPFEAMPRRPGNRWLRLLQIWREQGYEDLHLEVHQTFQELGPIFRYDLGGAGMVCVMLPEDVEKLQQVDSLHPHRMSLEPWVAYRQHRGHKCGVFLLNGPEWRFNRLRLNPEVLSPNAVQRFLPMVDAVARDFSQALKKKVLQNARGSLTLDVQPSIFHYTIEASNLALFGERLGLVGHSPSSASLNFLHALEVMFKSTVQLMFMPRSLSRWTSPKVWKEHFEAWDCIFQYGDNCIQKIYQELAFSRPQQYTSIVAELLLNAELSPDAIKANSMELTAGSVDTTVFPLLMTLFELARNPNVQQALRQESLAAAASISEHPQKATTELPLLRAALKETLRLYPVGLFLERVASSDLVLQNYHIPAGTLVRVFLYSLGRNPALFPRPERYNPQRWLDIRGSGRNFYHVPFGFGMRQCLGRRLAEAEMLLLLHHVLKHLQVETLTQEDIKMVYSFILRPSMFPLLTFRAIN
# human CYP11B2, sequence (P19099 25-503): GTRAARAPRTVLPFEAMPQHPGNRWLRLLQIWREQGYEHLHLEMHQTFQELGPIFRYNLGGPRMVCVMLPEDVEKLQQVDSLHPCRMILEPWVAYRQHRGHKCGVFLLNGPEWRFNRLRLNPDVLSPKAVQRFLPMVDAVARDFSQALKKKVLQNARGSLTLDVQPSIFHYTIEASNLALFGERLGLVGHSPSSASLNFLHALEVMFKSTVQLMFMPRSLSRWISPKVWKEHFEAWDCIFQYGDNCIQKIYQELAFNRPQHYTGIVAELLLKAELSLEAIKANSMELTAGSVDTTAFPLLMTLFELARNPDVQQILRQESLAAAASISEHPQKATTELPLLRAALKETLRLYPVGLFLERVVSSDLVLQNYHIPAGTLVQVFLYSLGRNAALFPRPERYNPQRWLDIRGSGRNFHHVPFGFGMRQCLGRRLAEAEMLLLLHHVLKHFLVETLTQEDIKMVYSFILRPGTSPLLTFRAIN
SMILES,sf: selectivity factor: IC50 (CYP11B2)/IC50 (CYP11B1) [1],IC50 [1],IC50 [2],inhibition at 2 µM [3],inhibition at 0.5 µM [4],"IC50 value CYP11B2 ([2]; Hamster fibroblasts expressing human CYP11B2, 100 nM, mean of at least three experiments, n.i. = no inhibition at an inhibitor concentration of 500 nM)"
"c1ccc(-c2ccc(Cn3ccnc3)cn2)cc1 [Compound 1, 5-Imidazol-1-ylmethyl-2-phenyl-pyridine]",18,152 nM,2770 nM,–,–,–
"Brc1ccc(Cn2ccnc2)cn1 [Compound 1a, 5-Imidazol-1-ylmethyl-2-bromopyridine]",–,500 nM,> 1000 nM,–,–,–
"c1cc(Cn2ccnc2)ccn1 [Compound 2, 4-Imidazol-1-ylmethyl-pyridine]",–,663 nM,> 1000 nM,–,–,–
"c1cncc(Cn2ccnc2)c1 [Compound 3, 3-Imidazol-1-ylmethyl-pyridine]",–,816 nM,> 1000 nM,–,–,–
"N#Cc1ncccc1Cn1ccnc1 [Compound 4, 3-Imidazol-1-ylmethyl-pyridine-2-carbonitrile]",–,971 nM,> 1000 nM,–,–,–
"Brc1ncccc1Cn1ccnc1 [Compound 5, 2-Bromo-3-imidazol-1-ylmethyl-pyridine]",15,61 nM,911 nM,3%,2%,–
"Clc1ncc(Cn2ccnc2)cc1Br [Compound 6, 3-Bromo-2-chloro-5-imidazol-1-ylmethyl-pyridine]",3.4,168 nM,576 nM,–,–,–
"Fc1ccccc1-c1ccc(Cn2ccnc2)cn1 [Compound 7, 2-(2-Fluoro-phenyl)-5-imidazol-1-ylmethyl-pyridine]",24,72 nM,1740 nM,3%,0%,–
"Fc1cccc(-c2ccc(Cn3ccnc3)cn2)c1 [Compound 8, 2-(3-Fluoro-phenyl)-5-imidazol-1-ylmethyl-pyridine]",–,320 nM,> 1000 nM,1%,–,–
"Fc1ccc(-c2ccc(Cn3ccnc3)cn2)cc1 [Compound 9, 2-(4-Fluoro-phenyl)-5-imidazol-1-ylmethyl-pyridine]",10,213 nM,2150 nM,5%,–,–
"Fc1ccc(-c2ccc(Cn3ccnc3)cn2)cc1F [Compound 10, 2-(3,4-Difluoro-phenyl)-5-imidazol-1-ylmethyl-pyridine]",5,329 nM,1660 nM,0%,–,–
"Oc1ccc(-c2ccc(Cn3ccnc3)cn2)cc1F [Compound 11, 2-Fluoro-4-(5-imidazol-1-ylmethyl-pyridin-2-yl)-phenol]",14,17 nM,237 nM,2.6%,0%,–
"COc1ccc(-c2ccc(Cn3ccnc3)cn2)cc1 [Compound 13, 5-Imidazol-1-ylmethyl-2-(4-methoxy-phenyl)pyridine]",–,782 nM,> 1000 nM,0%,–,–
"COc1ccc(-c2ccc(Cn3ccnc3)cn2)cc1OC [Compound 14, 2-(3,4-Dimethoxy-phenyl)-5-imidazol-1-ylmethyl-pyridine]",–,> 1000 nM,> 1000 nM,2%,–,–
"N#Cc1cccc(-c2ccc(Cn3ccnc3)cn2)c1 [Compound 19, 3-(5-Imidazol-1-ylmethyl-pyridin-2-yl)-benzonitrile]",–,409 nM,> 1000 nM,–,–,–
"N#Cc1ccc(-c2ccc(Cn3ccnc3)cn2)cc1 [Compound 20, 4-(5-Imidazol-1-ylmethyl-pyridin-2-yl)-benzonitrile]",–,782 nM,> 1000 nM,–,–,–
"O=Cc1ccc(-c2ccc(Cn3ccnc3)cn2)cc1 [Compound 21, 4-(5-Imidazol-1-ylmethyl-pyridin-2-yl)-benzaldehyde]",–,246 nM,> 1000 nM,0%,–,–
"c1ccc2cc(-c3ccc(Cn4ccnc4)cn3)ccc2c1 [Compound 24, 5-Imidazol-1-ylmethyl-2-naphthalen-2-yl-pyridine]",3.2,246 nM,782 nM,–,–,–
"c1cncc(-c2ccc(Cn3ccnc3)cn2)c1 [Compound 26, 5-Imidazol-1-ylmethyl-[2,3′]bipyridinyl]",8,502 nM,3960 nM,–,–,–
"c1cc(-c2ccc(Cn3ccnc3)cn2)ccn1 [Compound 27, 5-Imidazol-1-ylmethyl-[2,4′]bipyridinyl]",3.5,139 nM,487 nM,–,–,–
"c1cn(Cc2ccc(-c3cncnc3)nc2)cn1 [Compound 28, 5-(5-Imidazol-1-ylmethyl-pyridin-2-yl)-pyrimidine]",–,971 nM,–,–,–,n.i.^d
"COc1ccc(-c2ccc(Cn3ccnc3)cn2)cn1 [Compound 29, 5-Imidazol-1-ylmethyl-6′-methoxy-[2,3′]bipyridinyl]",–,> 1000 nM,> 1000 nM,–,–,–
"c1ccc2c(-c3ccc(Cn4ccnc4)cn3)cncc2c1 [Compound 30, 4-(5-Imidazol-1-ylmethyl-pyridin-2-yl)-isoquinoline]",10,95 nM,914 nM,–,–,–
"Clc1ccc(-c2ccc(Cn3ccnc3)cn2)s1 [Compound 33, 2-(5-Chloro-thiophen-2-yl)-5-imidazol-1-ylmethyl-pyridine]",2.6,362 nM,929 nM,–,–,–
"c1ccc2sc(-c3ccc(Cn4ccnc4)cn3)cc2c1 [Compound 37, 2-Benzo[b]thiophen-2-yl-5-imidazol-1-ylmethyl-pyridine]",1.0,269 nM,281 nM,–,–,–
"c1ccc2oc(-c3ccc(Cn4ccnc4)cn3)cc2c1 [Compound 41, 2-Benzo[b]furan-2-yl-5-imidazol-1-ylmethyl-pyridine]",–,500 nM,> 1000 nM,–,–,–
"CCOC(=O)c1cncn1[C@H](C)c1ccccc1 [ETO, etomidate, reference compound]",–,–,0.1 nM,–,–,–

# Source: US9394290B2, “Selective CYP11B1 inhibitors for the treatment of cortisol dependent diseases” (UNIVERSITAET DES SAARLANDES CAMPUS SAARBRUECKEN, priority 2010, dated 2016)
